IC50 data for 31 compounds are collected here from patent US7875618B2, “Substituted imidazo[1,5-a]quinoxalines useful as inhibitors of phosphodiesterase 10 for the treatment of neurological and other disorders” (Wyeth, priority 2007, dated 2011).

As a reminder, the IC50 is the point on the concentration scale where inhibition reaches its midpoint.

For this assay, the target named is T1, human recombinant PDE10A (Homo sapiens, UniProt Q9Y233).
T1 construct: made in house; host or cells: SF21 insect cells (baculovirus)
T1 sequence (Q9Y233 1-779 isoform Q9Y233-1): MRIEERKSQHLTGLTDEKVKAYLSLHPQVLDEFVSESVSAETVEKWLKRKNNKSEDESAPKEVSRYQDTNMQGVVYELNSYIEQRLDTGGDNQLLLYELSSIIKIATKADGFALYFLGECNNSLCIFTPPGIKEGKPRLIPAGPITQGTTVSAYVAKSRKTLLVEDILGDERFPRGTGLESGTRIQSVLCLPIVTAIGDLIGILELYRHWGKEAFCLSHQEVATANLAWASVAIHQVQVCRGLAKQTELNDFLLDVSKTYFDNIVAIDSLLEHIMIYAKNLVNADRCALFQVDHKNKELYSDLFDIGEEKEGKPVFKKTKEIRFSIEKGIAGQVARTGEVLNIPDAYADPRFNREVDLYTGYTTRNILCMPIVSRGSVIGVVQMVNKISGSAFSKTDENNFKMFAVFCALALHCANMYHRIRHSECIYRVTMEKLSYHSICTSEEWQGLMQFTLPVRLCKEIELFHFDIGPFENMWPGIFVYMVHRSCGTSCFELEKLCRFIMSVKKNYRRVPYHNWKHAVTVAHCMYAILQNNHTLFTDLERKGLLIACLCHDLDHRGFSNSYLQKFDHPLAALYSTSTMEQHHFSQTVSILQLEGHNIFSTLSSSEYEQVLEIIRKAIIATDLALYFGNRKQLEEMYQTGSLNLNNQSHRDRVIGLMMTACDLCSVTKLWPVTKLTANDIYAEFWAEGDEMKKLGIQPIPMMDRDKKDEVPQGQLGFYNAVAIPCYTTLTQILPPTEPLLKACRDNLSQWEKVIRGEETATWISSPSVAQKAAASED
In words: Inhibition of human recombinant PDE10A ([3H]-cAMP SPA, Method B). Format: biochemical. As to conditions: read-out: PDE10 inhibition IC50 [nM] PDE10A human. On the procedure:
The gene was than inserted into a baculovirus vector, ligated with the baculovirus DNA. The enzyme-protein was expressed in SF21-cells. The enzyme was isolated from these cells by harvesting the cells by a centrifugation at 200 g to collect the cells. The cells were resuspended in 50 mM Tris-HCl/5 mM MgCl2 buffer (pH=7.4) and lysed by a sonication of the cells. The cytosolic PDE10A was obtained by a centrifugation at 48000 g for 1 h in the supernatant and stored at −70° C. PDE10 activity was determined in a one step procedure in microtiterplates. […] Nonspecific activity was tested without the enzyme. The reaction was initiated by addition of the substrate solution and was carried out at 37° C. for 30 minutes. Enzymatic activity was stopped by addition of 25 μl YSi-SPA-beads (Amersham-Pharmacia). One hour later the mixture was measured in a liquid scintillation counter for microtiterplates (Microbeta Trilux). To pipette the incubation mixture a robot Biomek (Fa. Beckman) is used. […] For determination of IC50 values the Hill-plot, 2-parameter-model, was used.
As to `COc1cc(F)c2nc(C)c3c(C)nc(-c4ccccc4C)n3c2c1` [Example 31, 6-Fluoro-8-methoxy-3,4-dimethyl-1-(2-methylphenyl)-imidazo[1,5-a]quinoxaline], the IC50 was no more than 10 nM. Then `COc1cc(F)c2nc(C)c3c(C)nc(-c4cccc(F)c4C)n3c2c1` [Example 32, 6-Fluoro-1-(3-fluoro-2-methylphenyl)-8-methoxy-3,4-dimethylimidazo[1,5-a]quinoxaline], with no more than 10 nM; and `COc1cc(F)c2nc(C)c3c(C)nc(-c4ccc(F)cc4Cl)n3c2c1` [Example 33, 1-(2-Chloro-4-fluorophenyl)-6-fluoro-8-methoxy-3,4-dimethylimidazo[1,5-a]quinoxaline], with no more than 10 nM.

For `Cc1nc(F)ccc1-c1nc(C)c2c(C)nc3ccc(Cl)cc3n12` [Example 62, 8-chloro-1-(6-fluoro-2-methylpyridin-3-yl)-3,4-dimethylimidazo[1,5-a]quinoxaline], the IC50 was 10 to 100 nM. Next, `Cc1ccccc1-c1nc(C)c2c(C)nc3ccc(Cl)cc3n12` [Example 63, 8-chloro-3,4-dimethyl-1-(2-methylphenyl)imidazo[1,5-a]quinoxaline]: no more than 10 nM.

Consider `Cc1nc(-c2cccc(C(N)=O)c2)n2c1c(C)nc1ccc(Cl)cc12` [Example 64, 3-(8-chloro-3,4-dimethylimidazo[1,5-a]quinoxalin-1-yl)benzamide], for which the IC50 was no more than 10 nM. With `Cc1nc(-c2ccccc2Cl)n2c1c(C)nc1ccc(Cl)cc12` [Example 67, 8-chloro-1-(2-chlorophenyl)-3,4-dimethylimidazo[1,5-a]quinoxaline], the IC50 is no more than 10 nM.

Consider `Cc1nc(-c2ccc(F)c(C(N)=O)c2)n2c1c(C)nc1ccc(Cl)cc12` [Example 68, 5-(8-chloro-3,4-dimethylimidazo[1,5-a]quinoxalin-1-yl)-2-fluorobenzamide], for which the IC50 lay within 10 to 100 nM. Next, `Cc1nn(C)c(C)c1-c1nc(C)c2c(C)nc3ccc(Cl)cc3n12` [Example 69, 8-chloro-3,4-dimethyl-1-(1,3,5-trimethyl-1H-pyrazol-4-yl)imidazo[1,5-a]quinoxaline]: 10 to 100 nM; `Cc1ccccc1-c1nc(C)c2c(C)nc3c(F)cc(F)cc3n12` [Example 70, 6,8-difluoro-3,4-dimethyl-1-(2-methylphenyl)imidazo[1,5-a]quinoxaline]: no more than 10 nM. Then `COc1nc(C)c2c(C)nc3c(F)cc(F)cc3n12` [Example 73, 6,8-difluoro-1-methoxy-3,4-dimethylimidazo[1,5-a]quinoxaline], with no less than 100 nM; and `COc1cc(F)c2nc(C)c3c(C)nc(-c4ccccc4Cl)n3c2c1` [Example 77, 1-(2-chlorophenyl)-6-fluoro-8-methoxy-3,4-dimethylimidazo[1,5-a]quinoxaline], with no more than 10 nM.

Consider `COc1cc(F)c2nc(C)c3c(C)nc(-c4ccc(F)c(C(N)=O)c4)n3c2c1` [Example 78, 2-fluoro-5-(6-fluoro-8-methoxy-3,4-dimethylimidazo[1,5-a]quinoxalin-1-yl)benzamide], for which the IC50 is no more than 10 nM. Consider `COc1ccncc1-c1nc(C)c2c(C)nc3c(OC)cc(F)cc3n12` [Example 80, 8-fluoro-6-methoxy-1-(4-methoxypyridin-3-yl)-3,4-dimethylimidazo[1,5-a]quinoxaline], for which the IC50 was no more than 10 nM.

`COc1cc(F)cc2c1nc(C)c1c(C)nc(-c3ccccc3Cl)n12` [Example 85, 1-(2-chlorophenyl)-8-fluoro-6-methoxy-3,4-dimethylimidazo[1,5-a]quinoxaline]: the IC50 was no more than 10 nM. Next, `Cc1ccsc1-c1nc(C)c2c(C)nc3ccccc3n12` [Example 99, 3,4-dimethyl-1-(3-methyl-2-thienyl)imidazo[1,5-a]quinoxaline]: 10 to 100 nM. On to `Cc1noc(C)c1-c1nc(C)c2c(C)nc3ccccc3n12` [Example 100, 1-(3,5-dimethylisoxazol-4-yl)-3,4-dimethylimidazo[1,5-a]quinoxaline], for which the IC50 is no less than 100 nM. For `Cc1nc(-c2cccc(C(N)=O)c2)n2c1c(C)nc1ccccc12` [Example 101, 3-(3,4-dimethylimidazo[1,5-a]quinoxalin-1-yl)benzamide], the IC50 was in the range of 10 to 100 nM. Then `Cc1nc(-c2cc(C(N)=O)ccc2F)n2c1c(C)nc1ccccc12` [Example 102, 3-(3,4-dimethylimidazo[1,5-a]quinoxalin-1-yl)-4-fluorobenzamide], with 10 to 100 nM; and `Cc1nc(F)ccc1-c1nc(C)c2c(C)nc3ccccc3n12` [Example 103, 1-(6-fluoro-2-methylpyridin-3-yl)-3,4-dimethylimidazo[1,5-a]quinoxaline], with 10 to 100 nM; and `COc1ccc2nc(C)c3c(C)nc(-c4ccc(F)cc4Cl)n3c2c1` [Example 105, 1-(2-chloro-4-fluorophenyl)-8-methoxy-3,4-dimethylimidazo[1,5-a]quinoxaline], with no more than 10 nM. Regarding `COc1ccc2nc(C)c3c(C)nc(-c4ccc(Cl)cc4C(F)(F)F)n3c2c1` [Example 106, 1-[4-chloro-2-(trifluoromethyl)phenyl]-8-methoxy-3,4-dimethylimidazo[1,5-a]quinoxaline], the IC50 was 10 to 100 nM. Then `COc1ccc2nc(C)c3c(C)nc(-c4cc(Cl)ccc4C)n3c2c1` [Example 107, 1-(5-chloro-2-methylphenyl)-8-methoxy-3,4-dimethylimidazo[1,5-a]quinoxaline], with no more than 10 nM. Then `COc1ccc2nc(C)c3c(C)nc(-c4ccc(F)cc4C)n3c2c1` [Example 108, 1-(4-fluoro-2-methylphenyl)-8-methoxy-3,4-dimethylimidazo[1,5-a]quinoxaline], with 10 to 100 nM; and `COc1ccc2nc(C)c3c(C)nc(-c4cccc(F)c4C)n3c2c1` [Example 109, 1-(3-fluoro-2-methylphenyl)-8-methoxy-3,4-dimethylimidazo[1,5-a]quinoxaline], with no more than 10 nM. In the case of `COc1ccc2nc(C)c3c(C)nc(-c4cnccc4OC)n3c2c1` [Example 110, 8-methoxy-1-(4-methoxypyridin-3-yl)-3,4-dimethylimidazo[1,5-a]quinoxaline], the IC50 lay in the range of 10 to 100 nM.

As for `COc1ccc2nc(C)c3c(C)nc(-c4cccc(C(N)=O)c4)n3c2c1` [Example 112, 3-(8-methoxy-3,4-dimethylimidazo[1,5-a]quinoxalin-1-yl)benzamide], the IC50 was no more than 10 nM. Consider `COc1ccc2nc(C)c3c(C)nc(-c4ccc(F)nc4C)n3c2c1` [Example 113, 1-(6-fluoro-2-methylpyridin-3-yl)-8-methoxy-3,4-dimethylimidazo[1,5-a]quinoxaline], for which the IC50 fell in the range of 10 to 100 nM. Then `COc1ccc2nc(C)c3c(C)nc(-c4cc(C(N)=O)ccc4F)n3c2c1` [Example 114, 4-fluoro-3-(8-methoxy-3,4-dimethylimidazo[1,5-a]quinoxalin-1-yl)benzamide], with no more than 10 nM; and `COc1ccc2nc(C)c3c(C)nc(-c4ccccc4C)n3c2c1` [Example 115, 8-methoxy-3,4-dimethyl-1-(2-methylphenyl)imidazo[1,5-a]quinoxaline], with no more than 10 nM. In the case of `Cc1nc(F)ccc1-c1nc(C)c2c(C)nc3ccc(OC(F)(F)F)cc3n12` [Example 117, 1-(6-fluoro-2-methylpyridin-3-yl)-3,4-dimethyl-8-(trifluoromethoxy)imidazo[1,5-a]quinoxaline], the IC50 was in the range of 10 to 100 nM.
